{"source": "patent US20250221968A1", "about": "“TREATMENTS AND METHODS FOR INCREASING DOPAMINE” (Oxford University Innovation Limited, priority 2022, published 2025)", "key": {"muscarinic receptors": {"system": "muscarinic receptors", "details": "DLS, atropine 2 μM", "description": "For fast-scan cyclic voltammetry (FCV) in acute coronal slices, animals were anaesthetised with isoflurane. Brains were quickly removed into ice-cold, high Mg^2+ cutting solution containing in mM: 85 NaCl, 25 NaHCO3, 2.5 KCl, 1.25 NaH2PO4, 0.5 CaCl2, 7 MgCl2, 10 glucose, 65 sucrose. Brains were then blocked, and 300 μm coronal slices were cut on a vibratome (Leica VT1200S) between +1.5 to +0.5 mm from bregma containing caudate-putamen and nucleus accumbens. Slices recovered at 32° C. for 30-40 min after dissection and were subsequently kept at room temperature. Slices were maintained and recorded in artificial cerebrospinal fluid (aCSF) containing in mM: 130 NaCl, 25 NaHCO3, 2.5 KCl, 1.25 NaH2PO4, 2.5 CaCl2), 2 MgCl2, 10 glucose. The aCSF was saturated with 95% O2/5% CO2; recordings were made at 32-33° C. Extracellular DA concentration ([DA]o) was measured using FCV with 7 μm-diameter carbon fiber microelectrodes (CFMs; tip length 50-100 μm) and a Millar voltammeter (Julian Millar, Barts and the London School of Medicine and Dentistry) as previously^55. […]\nThe Inventors tested whether the DA release dynamics at the timepoints of ChI rebound activity are consistent with nAChR desensitisation. […] As a potential readout of the timecourse of nAChR desensitisation, the Inventors explored how the difference in [DA]o evoked by triplet versus single pulses (100 Hz) varied over time. […]"}, "D2 receptors": {"molecular_target": "T1, D2 receptors (Mus musculus, UniProt P61168)", "T1 construct": "striatal slices from ChAT-Cre: Ai32 mice; from tissue; host or cells: acute striatal slices (DLS) of ChAT-Cre:Ai32 mice", "T1 sequence (P61168 whole entry)": "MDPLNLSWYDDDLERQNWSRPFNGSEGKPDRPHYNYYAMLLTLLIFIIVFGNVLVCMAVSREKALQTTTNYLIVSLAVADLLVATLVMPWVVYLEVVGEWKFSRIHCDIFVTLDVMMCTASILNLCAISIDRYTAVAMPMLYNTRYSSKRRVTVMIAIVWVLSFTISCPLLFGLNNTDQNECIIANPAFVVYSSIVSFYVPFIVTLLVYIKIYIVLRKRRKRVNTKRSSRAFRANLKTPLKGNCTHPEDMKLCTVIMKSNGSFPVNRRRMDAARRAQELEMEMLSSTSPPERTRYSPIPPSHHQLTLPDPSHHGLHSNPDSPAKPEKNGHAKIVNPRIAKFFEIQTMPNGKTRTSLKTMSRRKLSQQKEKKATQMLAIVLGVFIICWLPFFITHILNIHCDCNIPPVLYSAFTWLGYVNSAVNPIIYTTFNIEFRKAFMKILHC", "test": "Ex vivo slice voltammetry: DA release after light activation of ChIs, 1p vs 3p Estim, ChAT-Cre:Ai32 slices, D2 antagonism", "format": "cell-based", "details": "DLS, L-741,626 1 μM", "text": "(§1) Stimulations were timed to avoid FCV scans."}, "nAChRs [1]": {"system": "nAChRs", "test": "Ex vivo slice voltammetry (FCV): [DA]o evoked by light pulse after prior electrical stimulus, striatal slices from DAT-Cre mice", "format": "cell-based, mouse", "details": "DHβE 1 μM", "text": "as §1\nThe Inventors also explored whether prior ChI activation limits subsequent DA release when driven by targeted optogenetic activation of DA axons (DADA). The Inventors used an electrical stimulus to initially drive DA release (DADA+DAChI) and then assessed DADA driven by a subsequent light activation of ChR2-expressing DA axons in ex vivo striatal slices from DAT-Cre mice (FIG. 2a,b). […] For inter-stimulus intervals <100 ms (DLS) or <50 ms (NAcc), this depression was relieved when a nAChR antagonist was present (DHβE, 1 μM)."}, "nAChRs [2]": {"system": "nAChRs", "test": "Calcium imaging of GCaMP6f in DA axons in DLS, ex vivo slices of DAT-Cre:Ai95D mice", "format": "cell-based, mouse", "details": "DHβE 1 μM", "method": "As in a previous study^21, an Olympus BX51WI microscope equipped with a OptoLED Lite system (CAIRN Research), Prime Scientific CMOS (sCMOS) Camera (Teledyne Photometrics), and a ×40/0.8 NA water-objective (Olympus UK) was used for wide-field fluorescence imaging of GCaMP6f in dopaminergic axons in DLS in ex vivo slices in response to single and trains (4 pulses, 100 Hz) of electrical stimulus pulses. Images were acquired at 16.6 Hz frame rate every 2.5 min using Micro-Manager 1.4, with stimulation and recording synchronised using custom-written procedures in Igor Pro 6 (WaveMetrics) and an ITC-18 A/D board (Instrutech). Image files were analysed with Matlab R2019b and Fiji 1.5. The inventors extracted fluorescence intensity from the region of interest (ROI) and from an equal background area where there was no GCaMP6f expression (on the stimulating electrode). After background subtraction, the Ca^2+ transients were bleach-corrected by fitting an exponential curve function through both the baseline (2 s prior to stimulation) and the last 1 s in a 7.2 s recording window. The order of single and train stimulations was alternated and equally distributed and data were collected in duplicate before and after a change in extracellular experimental condition. Data are expressed as ΔF/F where F is the fitted curve. […]"}, "nAChRs [3]": {"system": "nAChRs", "test": "6-OHDA lesioning and cylinder test (single paw reaching), mouse model of PD", "format": "in vivo", "details": "unilateral 6-OHDA lesioned mice, 10 μg into lesioned striatum, 10 min after injection", "method": "6-OHDA Lesioning and Reaching Task: On the lesioning day, 6-hydroxydopamine was injected into the right dorsolateral striatum through the pre-implanted cannula (1 μl of a 0.9% saline solution containing 4 μg/μL 6-OHDA (Sigma-Aldrich) and 0.02% acetic acid) over 5 min. On the testing day, mecamylamine (10 μg/side) was injected via the cannula in a volume of 0.5 μl over 1 min into the lesioned (right) striatum. Animals were sacrificed immediately after behavioural testing. The 6-OHDA-induced loss of dopamine axons was confirmed by the ˜50% decrease of fluorescence intensity of TH staining in slices compared to the contralateral DLS which was measured with ImageJ (1.52p). The anterior commissure used as 0% background fluorescence. Animals were briefly sedated with isoflurane during the injection of 6-OHDA and mecamylamine.\nA cylinder test was performed before and 10 min after 6-OHDA injection to confirm an acute effect of 6-OHDA. After one day of […], the test was performed again before and 10 min after mecamylamine injection. No habituation of the mice to the cylinder was conducted. During the test, mice were individually placed into a glass cylinder (diameter 19 cm, height 25 cm). […] Only wall touches with a single paw, ipsilateral or contralateral forelimb, were counted in the analysis. Data are contralateral touches expressed as a percentage of total number of single-paw touches. […]"}, "nAChRs [4]": {"system": "nAChRs", "test": "Conditioned place preference testing after bilateral dorsal striatal infusion", "format": "in vivo, mouse", "details": "freely moving mice, 10 μg/side bilateral dorsal striatum, two days of conditioning", "text": "Cannulae Placements: Male C57BL/6N mice (42-50 days) were anesthetised with isoflurane (5% induction; 1.5-2% maintenance) and placed on a stereotaxic frame for surgery. Bilateral injection needles (O.D. 0.21 mm, I.D. 0.11 mm, RWD, China) with the guide cannula (O.D. 0.41 mm, I.D. 0.25 mm, RWD, China) were implanted to the dorsal striatum either vertically or at a small angle from the vertical, with the tip of each cannula aimed at coordinates: AP+1.0 mm; ML+/−1.6 mm to bregma; DV-2.4 mm (from dura). Mice recovered for three days after surgery.\nConditioned Place Preference Testing: In CPP experiments, mice were placed in a 40 cm×40 cm transparent plexiglass arena which was divided into two equal chambers separated by doorway. The chambers were decorated with either horizontal or vertical stripes. The movement of animals was recorded and analysed with Smart V3.0 tracking software (Panlab, Spain).\nOn day 1, mice were allowed to freely shuttle between two chambers to assess place preference at baseline, expressed as % time spent in right chamber. […] On day 4, the post-conditioning chamber preference was calculated as the % of time spent in the right mecamylamine-associated chamber compared to on pre-conditioning day 1. […]"}, "nAChRs [5]": {"system": "nAChRs", "test": "Anesthetised in vivo voltammetry in DLS", "set-up": "species or system mouse", "details": "urethane-anesthetised wild-type mice, mecamylamine 2 mg/kg i.p. per FIG. 4 legend", "method": "Wild type mice were anesthetised with urethane (1.4-1.9 g/kg, i.p.; Biolab), supplemented with additional urethane (0.2 g/kg) every 1-2 hr as required. All wounds and pressure points were infiltrated with bupivacaine (0.5%). Upon reaching surgical anaesthesia, the head was fixed in a stereotaxic frame (Kopf, USA). Core temperature was maintained at 35-36° C. using a homeothermic blanket and monitored via a rectal probe (TR-100, Fine Science Tools). A round piece of skull overlying the left hemisphere was removed to target the DLS (AP+1.0 mm, ML 1.6 mm, DV 2.2 mm to Bregma). A stimulating and recording array consisting of a carbon-fiber microelectrode and a bipolar stimulating electrode (MS303/3-A/SPC, P1 Technology) was positioned in the DLS. The Ag/AgCl reference electrode was implanted in another part of the forebrain. […] The location of the tip of FCV electrode was confirmed histologically.\nFor striatal electrical stimulation, 0.65 mA current (200 μs) was delivered through a bipolar stimulating electrode (0.005 inch, MS303/3-A/SPC, P1 Technologies). The stimulating electrode tips were separated by ˜500 μm and were glued to the FCV recording electrode to fix the tip of the FCV electrode between the two stimulating poles. […]"}}, "note": "“Also recorded” adds a separate entry of the source.", "data": [{"smiles": "CN1[C@@H]2CC[C@H]1C[C@@H](OC(=O)C(CO)c1ccccc1)C2", "note": "(some centres unmarked) [atropine]", "values": [{"measurement": "dynamic DA release response after light activation of ChIs (100-400 ms interval)", "setting": "muscarinic receptors", "result": "persists"}]}, {"smiles": "OC1(c2ccc(Cl)cc2)CCN(Cc2c[nH]c3ccccc23)CC1", "note": "[L-741,626]", "values": [{"measurement": "dynamic DA release response after light activation of ChIs (100-400 ms interval)", "setting": "D2 receptors", "result": "persists"}]}, {"smiles": "CO[C@H]1CC=C2CCN3CCC4=C(CC(=O)OC4)[C@]23C1", "note": "[DHβE, Dihydro-β-erythroidine]", "values": [{"measurement": "depression of [DA]o evoked by a subsequent light pulse after an electrical stimulus", "setting": "nAChRs [1]; DLS, inter-stimulus intervals <100 ms", "result": "relieved"}, {"measurement": "depression of [DA]o evoked by a subsequent light pulse after an electrical stimulus", "setting": "nAChRs [1]; NAcc, inter-stimulus intervals <50 ms", "result": "relieved"}, {"measurement": "axonal GCaMP6f fluorescence for a 4-pulse train (100 Hz) compared to a single pulse", "setting": "nAChRs [2]", "result": "markedly greater"}]}, {"smiles": "CNC1(C)C2CCC(C2)C1(C)C", "note": "(centres unmarked) [mecamylamine]", "values": [{"measurement": "motor deficits: contralateral forelimb single-paw touching in cylinder test", "setting": "nAChRs [3]", "result": "reduces deficits; also recorded: remediated these motor deficits"}, {"measurement": "conditioned-place preference for the drug-conditioned chamber", "setting": "nAChRs [4]", "result": "developed a conditioned-place preference"}, {"measurement": "[DA]o evoked by local striatal stimulation with brief electrical pulse trains", "setting": "nAChRs [5]", "result": "significantly increased"}]}]}
